Here are results for 2 compounds from US20260078108A1, “SOLID FORMS OF A ROCK INHIBITOR” (REDX PHARMA PLC, priority 2022, published 2026).

The structures appear in SMILES notation.

In assay [1] the target is T1, CB2 (h) (Homo sapiens, UniProt P34972).
T1 construct: expressed in transfected cells; host or cells: CHO cells
Briefly: CEREP panel CB2 (h) agonist effect, cAMP HTRF. Type of assay: cell-based. To be noted: HCl salt tested, CHO cells. The text has this: (§1) The use of in vitro pharmacological screening against a diverse range of targets (receptors, ion channels, enzymes and transporters) is used to identify undesirable off-target activity that may cause adverse drug reactions in humans. Screening panels (e.g. SafetyScreen44™ Panel, Eurofins) comprise a selection of off-targets linked with known issues in humans that could hinder or halt the development of drug candidates or market withdrawal if discovered after a drug is approved. The HCl salts of the S enantiomer and the R enantiomer of compound A were tested against a panel of such targets.
(§2) The tests were carried out according to the methods described in the following tables and indicated literature references.

A further assay concerns the target T2, Serotonin transporter (Homo sapiens, UniProt P31645).
T2 construct: expressed in transfected cells
In words: CEREP panel serotonin transporter uptake (h), [3H]5HT incorporation. Type of assay: cell-based. To be noted: HCl salt tested; [3H]5HT incorporation in cells.
Source text: as §1, §2

In the next assay the target is T3, MAO-A (Rattus norvegicus, UniProt P21396).
T3 sequence (P21396 1-526): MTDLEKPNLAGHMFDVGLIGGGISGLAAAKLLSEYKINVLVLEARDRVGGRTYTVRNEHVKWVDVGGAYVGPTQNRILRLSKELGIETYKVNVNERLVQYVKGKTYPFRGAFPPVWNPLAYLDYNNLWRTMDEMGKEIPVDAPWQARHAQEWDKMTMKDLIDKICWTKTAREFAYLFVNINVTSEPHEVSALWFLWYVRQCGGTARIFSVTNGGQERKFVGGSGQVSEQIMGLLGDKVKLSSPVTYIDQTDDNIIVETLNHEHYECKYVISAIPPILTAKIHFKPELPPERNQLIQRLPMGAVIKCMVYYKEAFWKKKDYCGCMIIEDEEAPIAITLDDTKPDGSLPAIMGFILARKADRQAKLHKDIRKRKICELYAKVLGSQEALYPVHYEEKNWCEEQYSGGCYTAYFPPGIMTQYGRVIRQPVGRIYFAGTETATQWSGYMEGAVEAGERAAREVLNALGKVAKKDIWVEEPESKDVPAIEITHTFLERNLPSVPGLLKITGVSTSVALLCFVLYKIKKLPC
Briefly: CEREP panel MAO-A (antagonist radioligand). Type of assay: binding. Particulars: HCl salt tested.
Source text: as §1, §2

Another assay has as its target T4, M1 (h) (Homo sapiens, UniProt P11229).
T4 construct: expressed in transfected cells; host or cells: CHO cells
T4 sequence (P11229 1-460): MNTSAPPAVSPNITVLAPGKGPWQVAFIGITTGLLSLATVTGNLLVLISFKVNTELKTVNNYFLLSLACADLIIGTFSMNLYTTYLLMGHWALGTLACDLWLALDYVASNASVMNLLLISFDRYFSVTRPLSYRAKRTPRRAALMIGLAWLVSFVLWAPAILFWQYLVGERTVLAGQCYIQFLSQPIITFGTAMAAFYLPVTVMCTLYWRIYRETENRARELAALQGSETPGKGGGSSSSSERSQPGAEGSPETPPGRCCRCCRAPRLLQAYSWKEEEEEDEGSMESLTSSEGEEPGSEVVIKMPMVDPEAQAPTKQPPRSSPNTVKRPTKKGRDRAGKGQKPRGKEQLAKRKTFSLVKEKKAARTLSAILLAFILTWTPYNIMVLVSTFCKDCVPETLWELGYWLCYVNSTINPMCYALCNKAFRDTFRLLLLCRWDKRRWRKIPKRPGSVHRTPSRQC
Briefly: CEREP panel M1 (h) antagonist effect, intracellular Ca2+ fluorimetry. In kind it is cell-based. To be noted: HCl salt tested; CHO cells, acetylcholine (10 nM).
Source text: as §1, §2

Assay [2] deals with T5, Norepinephrine transporter (Homo sapiens, UniProt P23975).
T5 construct: expressed in transfected cells
Briefly: CEREP panel norepinephrine transporter uptake (h), [3H]NE incorporation. Type of assay: cell-based. To be noted: HCl salt tested; [3H]NE incorporation into cells.
Source text: as §1, §2

Another assay deals with ROCK2 (Homo sapiens, UniProt O75116). Briefly: Activity against kinase ROCK2. In kind it is biochemical. Particulars: comparison of enantiomers.
Assay [3] has as its target T1, CB2 (h). In words: CEREP panel CB2 (h) antagonist effect, cAMP HTRF. Type of assay: cell-based. To be noted: HCl salt tested; CHO cells, WIN 55212-2 (3 nM).
Source text: as §1, §2

T1 sequence (P34972 whole entry): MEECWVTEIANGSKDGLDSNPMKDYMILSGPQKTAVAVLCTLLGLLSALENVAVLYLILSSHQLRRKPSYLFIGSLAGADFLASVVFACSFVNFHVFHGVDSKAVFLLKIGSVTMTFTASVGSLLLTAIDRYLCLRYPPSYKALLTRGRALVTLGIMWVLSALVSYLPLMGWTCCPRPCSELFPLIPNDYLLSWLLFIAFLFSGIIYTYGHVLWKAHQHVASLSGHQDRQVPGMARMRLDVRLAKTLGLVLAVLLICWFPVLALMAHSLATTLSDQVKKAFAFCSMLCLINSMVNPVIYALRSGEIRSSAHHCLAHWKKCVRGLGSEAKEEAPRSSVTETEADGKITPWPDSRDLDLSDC
T5 sequence (P23975 whole entry): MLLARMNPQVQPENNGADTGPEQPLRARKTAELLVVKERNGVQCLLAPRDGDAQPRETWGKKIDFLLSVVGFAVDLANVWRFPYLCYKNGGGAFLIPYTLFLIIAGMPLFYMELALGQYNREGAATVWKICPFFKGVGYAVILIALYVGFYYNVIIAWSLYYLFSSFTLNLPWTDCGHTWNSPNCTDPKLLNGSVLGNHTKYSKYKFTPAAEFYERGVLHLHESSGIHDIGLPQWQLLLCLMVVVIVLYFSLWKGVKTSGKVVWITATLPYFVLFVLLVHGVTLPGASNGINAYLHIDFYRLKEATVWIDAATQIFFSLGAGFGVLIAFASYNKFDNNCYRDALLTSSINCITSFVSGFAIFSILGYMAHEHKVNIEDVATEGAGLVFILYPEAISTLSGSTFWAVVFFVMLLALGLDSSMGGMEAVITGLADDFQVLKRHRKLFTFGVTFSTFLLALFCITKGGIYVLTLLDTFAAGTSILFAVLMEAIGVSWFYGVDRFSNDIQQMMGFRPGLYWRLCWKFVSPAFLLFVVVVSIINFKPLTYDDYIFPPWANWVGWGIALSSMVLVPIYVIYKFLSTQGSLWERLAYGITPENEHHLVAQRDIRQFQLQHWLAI
Sequence of ROCK2 (O75116 whole entry, species assumed): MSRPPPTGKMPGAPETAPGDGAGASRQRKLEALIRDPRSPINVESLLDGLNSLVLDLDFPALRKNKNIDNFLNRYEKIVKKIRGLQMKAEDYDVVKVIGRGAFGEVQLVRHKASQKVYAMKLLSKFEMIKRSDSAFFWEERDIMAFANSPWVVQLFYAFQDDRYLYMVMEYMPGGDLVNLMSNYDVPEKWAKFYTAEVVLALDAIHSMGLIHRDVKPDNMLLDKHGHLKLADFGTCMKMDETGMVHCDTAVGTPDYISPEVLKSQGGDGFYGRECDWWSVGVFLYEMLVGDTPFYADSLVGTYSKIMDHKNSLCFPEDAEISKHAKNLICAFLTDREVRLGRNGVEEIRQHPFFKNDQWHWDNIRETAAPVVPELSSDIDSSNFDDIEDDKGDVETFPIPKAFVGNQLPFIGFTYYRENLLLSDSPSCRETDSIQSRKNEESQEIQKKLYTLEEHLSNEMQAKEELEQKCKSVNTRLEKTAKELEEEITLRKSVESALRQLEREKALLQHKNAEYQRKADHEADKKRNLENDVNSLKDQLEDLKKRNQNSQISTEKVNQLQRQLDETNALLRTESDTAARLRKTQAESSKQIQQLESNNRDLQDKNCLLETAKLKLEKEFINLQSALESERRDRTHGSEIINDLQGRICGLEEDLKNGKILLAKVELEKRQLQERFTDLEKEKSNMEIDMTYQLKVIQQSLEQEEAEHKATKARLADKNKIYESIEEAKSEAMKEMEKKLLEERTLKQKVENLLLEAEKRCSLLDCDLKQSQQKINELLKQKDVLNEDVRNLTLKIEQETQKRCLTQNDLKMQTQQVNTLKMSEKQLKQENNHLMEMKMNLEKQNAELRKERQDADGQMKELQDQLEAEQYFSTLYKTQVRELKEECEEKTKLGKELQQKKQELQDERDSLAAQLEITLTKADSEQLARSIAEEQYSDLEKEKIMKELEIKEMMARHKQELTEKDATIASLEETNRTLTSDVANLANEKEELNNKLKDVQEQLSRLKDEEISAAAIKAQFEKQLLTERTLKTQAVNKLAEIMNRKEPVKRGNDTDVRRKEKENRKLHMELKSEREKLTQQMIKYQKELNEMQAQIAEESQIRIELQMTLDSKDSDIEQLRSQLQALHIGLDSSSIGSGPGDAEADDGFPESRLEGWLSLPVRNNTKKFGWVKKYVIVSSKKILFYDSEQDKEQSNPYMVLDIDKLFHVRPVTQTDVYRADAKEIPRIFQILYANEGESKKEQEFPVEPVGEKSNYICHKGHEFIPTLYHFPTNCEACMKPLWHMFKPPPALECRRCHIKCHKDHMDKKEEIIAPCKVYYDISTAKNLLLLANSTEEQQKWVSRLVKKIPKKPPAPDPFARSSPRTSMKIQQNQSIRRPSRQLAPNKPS
T2 sequence (P31645 whole entry): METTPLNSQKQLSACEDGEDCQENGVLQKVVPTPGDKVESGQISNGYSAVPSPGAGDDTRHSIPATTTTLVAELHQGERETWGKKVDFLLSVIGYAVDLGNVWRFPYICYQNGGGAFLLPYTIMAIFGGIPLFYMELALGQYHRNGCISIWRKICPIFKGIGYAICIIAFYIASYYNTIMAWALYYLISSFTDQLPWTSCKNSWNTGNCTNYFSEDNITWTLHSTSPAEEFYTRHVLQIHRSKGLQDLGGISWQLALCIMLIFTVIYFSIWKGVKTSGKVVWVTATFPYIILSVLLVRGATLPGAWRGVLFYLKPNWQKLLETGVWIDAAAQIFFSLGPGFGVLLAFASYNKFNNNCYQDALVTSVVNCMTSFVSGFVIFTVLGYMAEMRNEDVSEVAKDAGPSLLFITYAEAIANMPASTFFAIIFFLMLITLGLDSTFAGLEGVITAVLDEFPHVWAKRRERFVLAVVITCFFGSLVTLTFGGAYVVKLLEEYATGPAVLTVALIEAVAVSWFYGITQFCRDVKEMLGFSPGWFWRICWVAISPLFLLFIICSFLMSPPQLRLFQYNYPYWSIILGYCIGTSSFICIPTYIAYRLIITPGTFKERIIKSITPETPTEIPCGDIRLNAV

As for `NCc1ccc(C(=O)Nc2ccncc2F)cc1-c1cccc(C(=O)Nc2ccc(SC[C@@H]3CCOC3=O)cc2)c1` [R-enantiomer], the “CB2 (h) (agonist effect) (EC50)” value on CB2 (h) [1] is listed as “Inactive”. Moreover, the IC50 was 6 µM on Serotonin transporter; 4.3 µM on MAO-A; 0.77 µM at M1 (h); 8.9 µM in assay [2]; 38 µM on CB2 (h) [3]. For the same compound, the “Difference between activities of S- and R-enantiomer against ROCK2” value at ROCK2 is listed as “no statistically meaningful difference”.

As for `NCc1ccc(C(=O)Nc2ccncc2F)cc1-c1cccc(C(=O)Nc2ccc(SC[C@H]3CCOC3=O)cc2)c1` [S-enantiomer], the “CB2 (h) (agonist effect) (EC50)” value on CB2 (h) [1] is listed as “Inactive”. The IC50 on Serotonin transporter was 11 µM; on MAO-A it was 0.82 µM; on M1 (h), more than 30 µM; in assay [2], 21 µM. Also, the “Difference between activities of S- and R-enantiomer against ROCK2” value at ROCK2 is “no statistically meaningful difference”. The “CB2 (h) (antagonist effect) (IC50)” value on CB2 (h) [3] is on record as “Inactive”.
